Laboratory results reported in ChEMBL document CHEMBL1140659, “Respiratory syncytial virus fusion inhibitors. Part 5: Optimization of benzimidazole substitution patterns towards derivatives with improved activity” (Bioorg Med Chem Lett, 2007).

Legend:
[1] = Therapeutic index, ratio of CC50 for HEp2 to EC50 for RSV long A; conditions: human, HEp2 cells; read-out: Ratio CC50/EC50
[2] = tested on: Respiratory syncytial virus; experiment: Antiviral activity against RSV long A with F1 protein K394R mutation in HEp2 cells; format: functional, organism-based
[3] = Cytotoxicity against human HEp2 cells; format: cell-based, HEp-2

Structure (SMILES) | selectivity ratio [1] | EC50 [2] | CC50 [3]
CC(C)CCn1c(Cn2c(=O)n(CC(=O)OC(C)(C)C)c3ccccc32)nc2cc(C#N)ccc21 | 12.6 | 2.55 µM | 32.2 µM
CC(C)CCn1c(Cn2c(=O)n(C(C)C)c3ccccc32)nc2cc(C(N)=O)ccc21 | 141 | 0.166 µM | 23.4 µM
O=c1n(Cc2nc3ccccc3n2CCCCO)c2cnccc2n1C1CC1 | – | > 20 µM | –
CC(C)CCn1c(Cn2c(=O)n(C(C)C)c3ccccc32)nc2ccc(C(=O)O)cc21 | 0.525 | 238 µM | 125 µM
CC(C)CCn1c(Cn2c(=O)n(CC(=O)OC(C)(C)C)c3ccccc32)nc2cc(C(=N)N)ccc21 | 878 | 0.009 µM | 7.9 µM
CC(C)CCn1c(Cn2c(=O)n(CC(=O)OC(C)(C)C)c3ccccc32)nc2cc(/C(N)=N\O)ccc21 | 1240 | 0.016 µM | 19.8 µM
CC(C)CCn1c(Cn2c(=O)n(C(C)C)c3ccccc32)nc2cccc(CN)c21 | 0.058 | 192 µM | 11 µM
CC(C)CCn1c(Cn2c(=O)n(C(C)C)c3ccccc32)nc2cc(CNS(C)(=O)=O)ccc21 | 42.4 | 0.725 µM | 30.8 µM
CC(C)CCn1c(Cn2c(=O)n(C(C)C)c3ccccc32)nc2cc(C(=O)N(C)C)ccc21 | 1.03 | 24.8 µM | 25.6 µM
CC(C)CCn1c(Cn2c(=O)n(C(C)C)c3ccccc32)nc2cc(CCN)ccc21 | 2.54 | 4.33 µM | 11 µM
CC(C)CCn1c(Cn2c(=O)n(C(C)C)c3ccccc32)nc2cc(/C(N)=N\O)ccc21 | 82.2 | 0.111 µM | 9.14 µM
C=C(C)n1c(=O)n(Cc2nc3cc(C(=O)O)ccc3n2CCC(C)C)c2ccccc21 | 0.11 | 264 µM | 30 µM
COC(=O)c1ccc2c(c1)nc(Cn1c(=O)n(C(C)C)c3ccccc31)n2CCC(C)C | 0.15 | 230 µM | 33.7 µM
C=C(C)n1c(=O)n(Cc2nc3ccccc3n2CCC(C)C)c2ccccc21 | 6160 | 0.004 µM | 24.6 µM
C=C(C)n1c(=O)n(Cc2nc3cc(/C(N)=N\O)ccc3n2CCC(C)C)c2ccccc21 | 694 | 0.005 µM | 3.47 µM
CC(C)CCn1c(Cn2c(=O)n(C(C)C)c3ccccc32)nc2cc(Br)ccc21 | 1010 | 0.018 µM | 18.1 µM
CC(C)CCn1c(Cn2c(=O)n(C(C)C)c3ccccc32)nc2c(CN)cccc21 | 9.78 | 0.715 µM | 7 µM
CC(C)CCn1c(Cn2c(=O)n(C(C)C)c3ccccc32)nc2ccc(C#N)cc21 | 228 | 0.044 µM | 10 µM
CC(C)CCn1c(Cn2c(=O)n(C(C)C)c3ccccc32)nc2cc(CN(C)C)ccc21 | 0.031 | 183 µM | 5.65 µM

Structure (SMILES) | selectivity ratio [1] | EC50 [2] | CC50 [3]
CC(=O)c1ccc2c(c1)nc(Cn1c(=O)n(C)c3ccccc31)n2CCC(C)C | 39.8 | 0.193 µM | 5.2 µM
CC(C)CCn1c(Cn2c(=O)n(C(C)C)c3ccccc32)nc2c(CCN)cccc21 | 17 | 0.23 µM | 3.92 µM
COCc1cccc2c1nc(Cn1c(=O)n(C(C)C)c3ccccc31)n2CCC(C)C | 3.56 | 7.5 µM | 26.7 µM
CC(C)CCn1c(Cn2c(=O)n(C(C)C)c3ccccc32)nc2cc(CC#N)ccc21 | 114 | 0.117 µM | 13.3 µM
C=C(C)n1c(=O)n(Cc2nc3cc(C#N)ccc3n2CCC(C)C)c2ccccc21 | 26 | 0.057 µM | 1.48 µM
CC(C)CCn1c(Cn2c(=O)n(C(C)C)c3ccccc32)nc2cc(CNC3CC3)ccc21 | 47.3 | 0.363 µM | 17.2 µM
CNCc1ccc2c(c1)nc(Cn1c(=O)n(C(C)C)c3ccccc31)n2CCC(C)C | 26 | 0.057 µM | 1.48 µM
CC(C)CCn1c(Cn2c(=O)n(C(C)C)c3ccccc32)nc2cccc(CO)c21 | 1 | 246 µM | 246 µM
C=C(C)n1c(=O)n(Cc2nc3cc(C(=N)N)ccc3n2CCC(C)C)c2ccccc21 | 2700 | 0.004 µM | 10.8 µM
CNCc1ccc2nc(Cn3c(=O)n(C(C)C)c4ccccc43)n(CCC(C)C)c2c1 | 0.026 | 187 µM | 4.81 µM
CC(C)CCn1c(Cn2c(=O)n(C(C)C)c3ccccc32)nc2cc(N)ccc21 | 258 | 0.125 µM | 32.2 µM
CC(C)CCn1c(Cn2c(=O)n(C)c3ccccc32)nc2cc(-c3nnn(C)n3)ccc21 | 0.012 | 239 µM | 2.97 µM
CCc1ccc2c(c1)nc(Cn1c(=O)n(C(C)C)c3ccccc31)n2CCC(C)C | 26.8 | 0.692 µM | 18.5 µM
CC(C)CCn1c(Cn2c(=O)n(C(C)C)c3ccccc32)nc2cc(C#N)ccc21 | 16.6 | 0.476 µM | 7.93 µM
CC(C)CCn1c(Cn2c(=O)n(C(C)C)c3ccccc32)nc2ccc(CCN)cc21 | 8.02 | 7.11 µM | 57 µM
CC(C)CCn1c(Cn2c(=O)n(C(C)C)c3ccccc32)nc2ccc(CN)cc21 | 296 | 0.095 µM | 28.1 µM
CC(C)CCn1c(Cn2c(=O)n(C(C)C)c3ccccc32)nc2cc(C(=O)O)ccc21 | 0.07 | 238 µM | 17.3 µM
CC(C)CCn1c(Cn2c(=O)n(C(C)C)c3ccccc32)nc2cc(-c3nn[nH]n3)ccc21 | 0.009 | 225 µM | 2 µM
CC(C)CCn1c(Cn2c(=O)n(CC(=O)O)c3ccccc32)nc2cc(C(=N)N)ccc21 | 5570 | 0.031 µM | 173 µM

Structure (SMILES) | selectivity ratio [1] | EC50 [2] | CC50 [3]
CC(C)CCn1c(Cn2c(=O)n(C(C)C)c3ccccc32)nc2cc(CF)ccc21 | 793 | 0.047 µM | 37.3 µM
N=C(N)c1ccc2nc(Cc3nc4ccc(C(=N)N)cc4[nH]3)[nH]c2c1 | – | 100 µM | –
CC(C)CCn1c(Cn2c(=O)n(C(C)C)c3ccccc32)nc2c(CC#N)cccc21 | 0.482 | 241 µM | 116 µM
CC(C)CCn1c(Cn2c(=O)n(C(C)C)c3ccccc32)nc2ccc(CN(C)C)cc21 | 0.026 | 182 µM | 26.7 µM
CC(C)CCn1c(Cn2c(=O)n(C(C)C)c3ccccc32)nc2ccc(C(N)=O)cc21 | 0.406 | 123 µM | 49.9 µM
COC(=O)c1cccc2nc(Cn3c(=O)n(C(C)C)c4ccccc43)n(CCC(C)C)c12 | 0.11 | 230 µM | 25.3 µM
CC(C)CCn1c(Cn2c(=O)n(C(C)C)c3ccccc32)nc2c(CCC#N)cccc21 | 0.096 | 234 µM | 2.24 µM
CC(=O)NCc1ccc2c(c1)nc(Cn1c(=O)n(C(C)C)c3ccccc31)n2CCC(C)C | 282 | 0.631 µM | 178 µM
CC(C)CCn1c(Cn2c(=O)n(C(C)C)c3ccccc32)nc2ccc(CO)cc21 | 609 | 0.134 µM | 81.6 µM
CC(C)CCn1c(Cn2c(=O)n(C(C)C)c3ccccc32)nc2c(CCCN)cccc21 | 0.011 | 213 µM | 2.34 µM
CC(C)CCn1c(Cn2c(=O)n(C(C)C)c3ccccc32)nc2c(CO)cccc21 | 26.8 | 0.82 µM | 22 µM
C=Cc1ccc2c(c1)nc(Cn1c(=O)n(C(C)C)c3ccccc31)n2CCC(C)C | 10.3 | 0.63 µM | 6.52 µM
COC(=O)c1cccc2c1nc(Cn1c(=O)n(C(C)C)c3ccccc31)n2CCC(C)C | 0.213 | 230 µM | 49.2 µM
CC(C)CCn1c(Cn2c(=O)n(C(C)C)c3ccccc32)nc2cc(CO)ccc21 | 632 | 0.05 µM | 31.6 µM
CC(C)CCn1c(Cn2c(=O)n(C(C)C)c3ccccc32)nc2cc(CN)ccc21 | 1960 | 0.002 µM | 3.92 µM
C=C(C)n1c(=O)n(Cc2nc3cc(C(C)=O)ccc3n2CCC(C)C)c2ccccc21 | 4.1 | 0.179 µM | 0.74 µM
CC(C)CCn1c(Cn2c(=O)n(C(C)C)c3ccccc32)nc2cc(C(C)(C)N)ccc21 | 4.71 | 0.694 µM | 3.27 µM
CC(C)CCn1c(Cn2c(=O)n(C(C)C)c3ccccc32)nc2cccc(N=[N+]=[N-])c21 | 15.6 | 3.7 µM | 57.9 µM
CC(C)CCn1c(Cn2c(=O)n(C(C)C)c3ccccc32)nc2cc(-c3ncon3)ccc21 | 10.3 | 21.6 µM | 223 µM
